Source: publication PMC12040169 (PLOS Biology, 2025)

test: in vitro; settings: human, hela cells, % viability

In order of falling viability at 28.5 h, 10 µM:
1. CSCCOc1nccnc1N1CCCC1 [CBK115757]  120%
2. CCc1c(C)nc2ccccc2c1SCCC(=O)O [CBK116382C]  118%
3. Cc1ccc(NC2(C#N)C(=O)Nc3ccccc32)cc1C (stereo not drawn) [CBK116388]  114%
4. O=C(c1ccco1)c1coc2ccc(O)cc12 [CBK115570]  113%
5. CC(=O)Nc1ccc(S(=O)(=O)N2CCC3(CC2)NC(=O)c2cc(-c4ccoc4)ccc2O3)cc1 [CBK115856]  113%
6. CCOC(=O)c1c(NC(=O)c2ccccc2C(=O)O)sc2c1CCCC2 [CBK116364]  113%
7. O=C1N=C(NC2CC3CCC2C3)SC12CCCO2 (stereo not drawn) [CBK116312]  110%
8. CC(C)Nc1cncc(OCCN2CCOCC2)n1 [CBK115599]  109%
9. FC(F)(F)c1ccnc(OCc2ccc(-c3ccccc3)cc2)c1 [CBK115826]  108%
10. COC(=O)c1sc2cc(C(F)(F)F)cnc2c1NC(=O)C1COc2ccccc2O1 (stereo not drawn) [CBK115865]  107%
11. COc1ccc2[nH]cc(CCNC(=O)[C@H](CC(C)C)NC(C)=O)c2c1 [CBK116210]  107%
12. Cc1ncsc1CCOc1nccnc1NC(C)C [CBK115728]  106%
13. COc1ccc2[nH]cc(CCNC(=O)CC(C)O)c2c1 (stereo not drawn) [CBK116201]  106%
14. CC(C)Nc1cncc(OCCCN(C)C)n1 [CBK115600]  105%
15. O=C(NCC1CCCN1)c1cc2cc(Cl)ccc2[nH]1 (stereo not drawn) [CBK115917C]  104%
16. NCCNC(=O)c1ccc(-c2cccc(C(F)(F)F)c2)o1 [CBK115927C]  104%
17. CN1CCN(CCOC(=O)N2CCN(c3cccc(C(F)(F)F)c3)CC2)CC1 [CBK115940C]  103%
18. Cc1ccc(-c2ccccc2)n1-c1ccc(O)c(C(=O)O)c1 [CBK116375]  103%
19. CC(O)c1nc2ccc(Cl)cc2[nH]1 (stereo not drawn) [CBK115573]  102%
20. c1cc(COc2cncc(N3CCCC3)n2)cs1 [CBK115669]  102%
21. COCCCOc1cc(N2CCCC2)ncn1 [CBK115896]  102%
22. CSCCOc1cncc(N2CCCC2)n1 [CBK115761]  101%
23. FC(F)(F)c1cccnc1OCc1cccnc1 [CBK115780]  101%
24. Cc1ncsc1CCOc1ccc(C(F)(F)F)cn1 [CBK115790]  101%
25. FC(F)(F)c1ccc(OCCNc2ccccc2)nc1 [CBK115828]  101%
26. O=C(NCC1CCCN1)c1cnn(-c2ccc(Cl)cc2)c1C(F)(F)F (stereo not drawn) [CBK115925C]  101%
27. Cc1ncsc1CCOc1cc(C(F)(F)F)ccn1 [CBK115785]  100%
28. O=C1NC2(CCN(C(=O)c3ccc(C(F)(F)F)c(F)c3)CC2)Oc2ccc(-c3ccccc3)cc21 [CBK115841]  99.7%
29. FC(F)(F)c1nc2ccccc2nc1OC1CCOC1 (stereo not drawn) [CBK115806]  99.6%
30. CCOC(=O)c1ccc(-n2sc3ccccc3c2=O)cc1 [CBK115552]  99.1%
31. O=C(NCc1ccc(F)cc1)Nc1ccccc1F [CBK115584]  98.9%
32. FC(F)(F)c1cccc(OCCCc2ccncc2)n1 [CBK115795]  98.8%
33. CCCc1n[nH]c(C(C)C)c1C(=O)OCC [CBK115724]  98.7%
34. Cc1cc(NC(=O)CC2CC2)c2ccccc2n1 [CBK116257]  98.6%
35. COc1cc2c(cc1OC)CN(C(=O)c1ccccn1)CC2 [CBK115864]  98.5%
36. Cc1cc(NC(=O)c2cc(C)[nH]n2)c2ccccc2n1 [CBK116260]  98.5%
37. CC(C(=O)N1CCCCC1)n1sc2ccccc2c1=O (stereo not drawn) [CBK116322]  98.4%
38. N#Cc1cccc(-c2cnc(N)c(-c3ccc(O)cc3)n2)c1 [CBK115630]  98%
39. Clc1cc2nc(OCCCc3ccncc3)c(N3CCCC3)nc2cc1Cl [CBK115774]  98%
40. O=C1N=C(NCc2ccccc2F)OC12CCN(Cc1ccccc1)CC2 [CBK115688]  96.2%
41. CC(C)(C)c1cc(C(=O)NCC2CCCN2)n(Cc2ccc(Cl)cc2Cl)n1 (stereo not drawn) [CBK115920C]  96.1%
42. CC(C)(C)OC(=O)N1CCN(CCCOC2(C)SC(NC3CC4CCC3C4)=NC2=O)CC1 (stereo not drawn) [CBK115612]  95.9%
43. COc1ccc2[nH]cc(CCNC(=O)c3ccccn3)c2c1 [CBK115866]  95.7%
44. O=C(NC1CC2CCC(C1)N2Cc1ccccc1)c1cccc(Cl)c1 (stereo not drawn) [CBK116291]  95.4%
45. Cc1ncsc1CCOc1nc2ccccc2nc1C(F)(F)F [CBK115802]  95.2%
46. Cc1ccccc1-c1cnc(N)c(-c2ccc(O)cc2)n1 [CBK115544]  95%
47. CC(O)c1nc2ccccc2n1C (stereo not drawn) [CBK115560]  94.9%
48. Cc1ccc(C)n1-c1ccc(O)c(C(=O)O)c1 [CBK116381]  94.2%
49. FC(F)(F)c1cccnc1OCCCc1ccncc1 [CBK115782]  93.9%
50. CC(C)Nc1cncc(OCCN2CCNCC2)n1 [CBK115601]  93.6%
51. CC(C)Nc1cc(OC2CCOC2)ncn1 (stereo not drawn) [CBK115888]  93.4%
52. CCCc1n[nH]c(O)c1Cc1ccc(OCCCN(C)C)cc1 [CBK116249A]  93.1%
53. CN1CC(=O)N(c2ccc(Cl)cc2Cl)C1=O [CBK116319]  93%
54. Oc1cccc(OCCOc2nccc(C(F)(F)F)n2)c1 [CBK115903]  92.7%
55. COCCCOc1cc(NC(C)C)ncn1 [CBK115885]  92.6%
56. c1cnc(N2CCCC2)c(OCc2ccsc2)n1 [CBK115664]  92.2%
57. Cc1ccc(C)n1-c1ccc(CC(=O)O)cc1 [CBK116374]  92.2%
58. FC(F)(F)c1cccc(OCc2ccc(-c3ccccc3)cc2)n1 [CBK115836]  92.1%
59. Cc1cc(N2CCN(c3ccccc3)CC2)nc(-c2ccccc2O)n1 [CBK116405]  92.1%
60. CN1CCN(C(=O)Nc2cccc(-c3nc(-c4ccc(C#N)cc4)cnc3N)c2)CC1 [CBK116251]  91.7%
61. Cc1cc(COc2nccnc2N2CCCC2)no1 [CBK115755]  91.3%
62. CC(C)Nc1cc(OCc2cccnc2)ncn1 [CBK115883]  91.3%
63. c1ncc(N2CCCC2)nc1OC1CCOC1 (stereo not drawn) [CBK115893]  91.3%
64. c1cnc(N2CCCC2)c(OC2CCOC2)n1 (stereo not drawn) [CBK115891]  91.2%
65. CC(C)Nc1cncc(OC2CCN(C)C2)n1 (stereo not drawn) [CBK115598]  90.8%
66. FC(F)(F)c1ccnc(OCCNc2ccccc2)c1 [CBK115824]  90.5%
67. COc1cccc(NC(=O)NCc2ccc(F)cc2)c1 [CBK115590]  90.2%
68. c1ccc2nc(N3CCCC3)c(OCc3ccsc3)nc2c1 [CBK115819]  90.2%
69. O=C(O)c1cccc(Sc2nccc(C(F)(F)F)n2)c1 [CBK115957]  90.2%
70. COCCCOc1nccnc1NC(C)C [CBK115876]  90%
71. CSCCOc1cc(N2CCCC2)ncn1 [CBK115900]  90%
72. COc1ccc2[nH]cc(CCNC(=O)c3cc(C)[nH]n3)c2c1 [CBK116206]  89.8%
73. COc1ccccc1-c1nnc(SCC(=O)O)n1-c1ccccc1 [CBK116149]  89.5%
74. NC(=O)c1ccccc1-c1cnc(N)c(-c2ccc(O)cc2)n1 [CBK115536]  89.4%
75. Cc1cc(NC(=O)Cc2ccsc2)c2ccccc2n1 [CBK116259]  89.4%
76. CCn1c(C)nc2cc(Cl)c(Cl)cc21 [CBK115577]  89.3%
77. N#Cc1ccc(C(=O)N2CCC3(CC2)NC(=O)c2cc(-c4ccoc4)ccc2O3)cc1 [CBK115852]  88.9%
78. Cc1cc(COc2nccc(C(F)(F)F)n2)no1 [CBK115800]  88.7%
79. Cc1ncsc1CCOc1nc2cc(Cl)c(Cl)cc2nc1NC(C)C [CBK115744]  88.6%
80. c1ccc(NCCOc2nccnc2N2CCCC2)cc1 [CBK115814]  87.9%
81. CC(C)Nc1cncc(OCC2CN(C)CCN2C)n1 (stereo not drawn) [CBK115602]  87.7%
82. CC(C)Nc1cncc(OCc2ccc(Cl)c(Cl)c2)n1 [CBK115653]  87.5%
83. CC1(OCCCN2CCCCC2)SC(NC2CC3CCC2C3)=NC1=O (stereo not drawn) [CBK115611]  87.2%
84. O=C(NCC1CCCN1)c1cc(C(=O)c2ccc(Cl)cc2Cl)c[nH]1 (stereo not drawn) [CBK115923C]  86.1%
85. c1cc(CCCOc2cncc(N3CCCC3)n2)ccn1 [CBK115760]  85.3%
86. FC(F)(F)c1nc2ccccc2nc1OCCCc1ccncc1 [CBK115804]  85.1%
87. N#Cc1ccc(-c2cnc(N)c(-c3ccc(NC(=O)CCN4CCCCC4)cc3)n2)cc1 [CBK116418]  85%
88. CCNC(=O)NCc1ccc(F)cc1 [CBK115581]  84.9%
89. Cc1ncsc1CCOc1cc(NC(C)C)ncn1 [CBK115884]  84.8%
90. Oc1cccc(OCCOc2cccc(C(F)(F)F)n2)c1 [CBK115797]  84.7%
91. Oc1cccc(OCCOc2nc3ccccc3nc2N2CCCC2)c1 [CBK115901]  84.1%
92. Cc1[nH]c(=S)[nH]c(=O)c1Cc1cccc2ccccc12 [CBK115563]  82.4%
93. CN1C(=O)CN(C2CCCCC2)C1=O [CBK116320]  82.3%
94. FC(F)(F)c1ccc(OCCOc2ccccc2)nc1 [CBK115829]  80.4%
95. CC(C)Nc1nccnc1OCCc1c[nH]c2ccccc12 [CBK115647]  79.7%
96. COc1cc2c3c([nH]c2cc1F)C1(CCN(CCOc2ccccc2)C1)NCC3 (stereo not drawn) [CBK115687T]  77.6%
97. CN(C)S(=O)(=O)c1ccc2c(c1)nc1n2CCC1 [CBK115558]  71.4%

same assay, conditions: human, hela cells, % viability, bulk resorufin, single well

In order of rising viability at 28.5 h, 10 µM:
1. CCOC(=O)c1ccc(NC(=O)c2c(O)[nH]c(=O)[nH]c2=O)cc1 [CBK115565]  84.7%
2. COc1ccc(CC(=O)Nc2cccc(-c3ccc4c(c3)COC3(CCNCC3)O4)c2)c(OC)c1 [CBK115706]  89.6%
